Consider 6 molecules from ChEMBL document CHEMBL5724914, “Linking interpersonal differences in gut microbiota composition and drug biotransformation activity” (2024).

Where a SMILES comes first, the peptide text is derived from it. [ ]: non-standard residue; d: D form. pGlu = O=C1CC[C@@H](C(=O)O)N1; Thz = O=C(O)[C@@H]1CSCN1

A short description of series [1]: The drug is tested on Z-002 corresponding to rabbit gut metagenome with ENA study accession number: PRJEB37062 and ENA sample accession number: ERS12561802 for biotransformation under anaerobic condition. The drug concentrations were measured over 9 timepoints collected between 0 and 24 hours of incubation by liquid-chromatography-coupled mass spectrometry (LC–MS). Conditions: 2 µM.

A short description of series [2]: The drug is tested on Z-027 corresponding to metagenome with ENA study accession number: PRJEB37062 and ENA sample accession number: ERS12561826 for biotransformation under anaerobic condition. The drug concentrations were measured over 9 timepoints collected between 0 and 24 hours of incubation by liquid-chromatography-coupled mass spectrometry (LC–MS). Conditions: 2 µM.

The conditions of series [3]: human gut metagenome, 24 h, 2 µM.
Series [4] is described as follows: The drug is tested on Z-005 corresponding to metagenome with ENA study accession number: PRJEB37062 and ENA sample accession number: ERS12561805 for biotransformation under anaerobic condition. The drug concentrations were measured over 9 timepoints collected between 0 and 24 hours of incubation by liquid-chromatography-coupled mass spectrometry (LC–MS). The conditions noted are these: 2 µM.

For series [5] the following is noted: human gut metagenome, 24 h, 2 µM. The source holds these as a separate data set.
For series [6] the following is noted: human gut metagenome, 24 h, 2 µM. This is another data set of the same source.
Series [7] is described as follows: The drug is tested on WLS-069 corresponding to human gut metagenome with ENA study accession number: PRJEB37062 and ENA sample accession number: ERS12561748 for biotransformation under anaerobic condition. The drug concentrations were measured over 9 timepoints collected between 0 and 24 hours of incubation by liquid-chromatography-coupled mass spectrometry (LC–MS). The conditions noted are these: 2 µM.

A short description of series [8]: The drug is tested on Z-007 corresponding to rat gut metagenome with ENA study accession number: PRJEB37062 and ENA sample accession number: ERS12561807 for biotransformation under anaerobic condition. The drug concentrations were measured over 9 timepoints collected between 0 and 24 hours of incubation by liquid-chromatography-coupled mass spectrometry (LC–MS). The conditions noted are these: 2 µM.

The conditions of series [9]: human gut metagenome, 24 h, 2 µM. The source holds these as a separate data set.
The nature of series [10]: The drug is tested on Z-001 corresponding to mouse gut metagenome with ENA study accession number: PRJEB37062 and ENA sample accession number: ERS12561801 for biotransformation under anaerobic condition. The drug concentrations were measured over 9 timepoints collected between 0 and 24 hours of incubation by liquid-chromatography-coupled mass spectrometry (LC–MS). Conditions: 2 µM.

Series [11] in a line: The drug is tested on WLS-098 corresponding to human gut metagenome with ENA study accession number: PRJEB37062 and ENA sample accession number: ERS12561754 for biotransformation under anaerobic condition. The drug concentrations were measured over 9 timepoints collected between 0 and 24 hours of incubation by liquid-chromatography-coupled mass spectrometry (LC–MS). Conditions: 2 µM.

The conditions of series [12]: human gut metagenome, 24 h, 2 µM. The source holds these as a separate data set.
Series [13] is described as follows: The drug is tested on Z-019 corresponding to rat gut metagenome with ENA study accession number: PRJEB37062 and ENA sample accession number: ERS12561818 for biotransformation under anaerobic condition. The drug concentrations were measured over 9 timepoints collected between 0 and 24 hours of incubation by liquid-chromatography-coupled mass spectrometry (LC–MS). The conditions noted are these: 2 µM.

Series [14] is described as follows: The drug is tested on Z-030 corresponding to mouse gut metagenome with ENA study accession number: PRJEB37062 and ENA sample accession number: ERS12561829 for biotransformation under anaerobic condition. The drug concentrations were measured over 9 timepoints collected between 0 and 24 hours of incubation by liquid-chromatography-coupled mass spectrometry (LC–MS). Conditions: 2 µM.

For series [15] the following is noted: human gut metagenome, 24 h, 2 µM. This is another data set of the same source.
For series [16] the following is noted: human gut metagenome, 24 h, 2 µM. This is another data set of the same source.
The nature of series [17]: The drug is tested on Z-020 corresponding to rabbit gut metagenome with ENA study accession number: PRJEB37062 and ENA sample accession number: ERS12561819 for biotransformation under anaerobic condition. The drug concentrations were measured over 9 timepoints collected between 0 and 24 hours of incubation by liquid-chromatography-coupled mass spectrometry (LC–MS). The conditions noted are these: 2 µM.

The conditions of series [18]: human gut metagenome, 24 h, 2 µM. The source holds these as a separate data set.
Series [19] can be described thus: The drug is tested on WLS-007 corresponding to human gut metagenome with ENA study accession number: PRJEB37062 and ENA sample accession number: ERS12561742 for biotransformation under anaerobic condition. The drug concentrations were measured over 9 timepoints collected between 0 and 24 hours of incubation by liquid-chromatography-coupled mass spectrometry (LC–MS). The conditions noted are these: 2 µM.

Series [20] in a line: The drug is tested on WLS-073 corresponding to human gut metagenome with ENA study accession number: PRJEB37062 and ENA sample accession number: ERS12561749 for biotransformation under anaerobic condition. The drug concentrations were measured over 9 timepoints collected between 0 and 24 hours of incubation by liquid-chromatography-coupled mass spectrometry (LC–MS). The conditions noted are these: 2 µM.
Also: call rule not given here.

Consider `CC(O)(CS(=O)(=O)c1ccc(F)cc1)C(=O)Nc1ccc(C#N)c(C(F)(F)F)c1` (stereo not drawn) [BICALUTAMIDE], for which the “Bacterial Biotransformation” value in series [1], in series [2], in series [3], in series [4], in [5] and in series [6] was “Compound NOT metabolized” each time. Moreover, the “Bacterial Biotransformation” value in [7], in [8], in series [9], in [10], in [11] and in series [12] was “Compound NOT metabolized” throughout. Besides, the “Bacterial Biotransformation” value in series [13], in series [14], in series [15], in series [16], in [17] and in [18] was “Compound NOT metabolized” throughout. Moreover, the “Bacterial Biotransformation” value in [19] is listed as “Compound NOT metabolized”.

As to `O=c1[nH]c2ccccc2n1CCCN1CCC(n2c(=O)[nH]c3cc(Cl)ccc32)CC1` [DOMPERIDONE], the “Bacterial Biotransformation” value in series [1], in series [2], in [4], in series [5], in series [6] and in [7] was “Compound NOT metabolized” throughout. The “Bacterial Biotransformation” value in series [8], in series [9], in series [10], in [20], in [11] and in [12] was “Compound NOT metabolized” throughout. Besides, the “Bacterial Biotransformation” value in series [13], in series [14], in series [16], in [17] and in [19] was “Compound NOT metabolized” each time.

Regarding `C=CCN1CC[C@]23c4c5ccc(O)c4O[C@H]2C(=O)CC[C@@]3(O)[C@H]1C5` [NALOXONE], the “Bacterial Biotransformation” value in series [1] is given as “Compound NOT metabolized”; in series [2], “Compound NOT metabolized”; in series [3], “Compound NOT metabolized”; in series [4], “Compound NOT metabolized”; in [5], “Compound metabolized”; in series [6], “Compound NOT metabolized”. In addition, the “Bacterial Biotransformation” value is “Compound NOT metabolized” in [7]; “Compound NOT metabolized” in [8]; “Compound NOT metabolized” in series [9]; “Compound metabolized” in series [10]; “Compound NOT metabolized” in [20]; “Compound NOT metabolized” in [11]. For the same molecule, the “Bacterial Biotransformation” value was “Compound metabolized” in series [12]; “Compound NOT metabolized” in series [13]; “Compound NOT metabolized” in series [14]; “Compound NOT metabolized” in series [15]; “Compound NOT metabolized” in series [16]; “Compound NOT metabolized” in series [17]. The “Bacterial Biotransformation” value in series [18] is on record as “Compound NOT metabolized”.

With `NC(=O)N1c2ccccc2CC(=O)c2ccccc21` [OXCARBAZEPINE], the “Bacterial Biotransformation” value in series [1] was “Compound metabolized”; in series [2], “Compound NOT metabolized”; in series [3], “Compound NOT metabolized”; in series [4], “Compound metabolized”; in series [5], “Compound NOT metabolized”; in series [6], “Compound NOT metabolized”. Besides, the “Bacterial Biotransformation” value in series [7], in series [8], in series [9], in [10], in [20] and in series [11] was “Compound NOT metabolized” each time. For the same molecule, the “Bacterial Biotransformation” value in series [12], in [13], in series [14], in [15], in series [16] and in series [17] was “Compound NOT metabolized” in each case. For the same molecule, in [18], the “Bacterial Biotransformation” value was “Compound NOT metabolized”.

For `O=C1CC[C@@H](C(=O)N2CSC[C@H]2C(=O)O)N1` [PIDOTIMOD] ([pGlu]-[Thz]-OH), the “Bacterial Biotransformation” value was “Compound NOT metabolized” in series [1]; “Compound NOT metabolized” in series [2]; “Compound metabolized” in [3]; “Compound metabolized” in [4]; “Compound NOT metabolized” in series [5]; “Compound NOT metabolized” in [8]. The “Bacterial Biotransformation” value in series [9], in series [10], in [20], in series [11], in [12] and in series [13] was “Compound NOT metabolized” each time. Further, the “Bacterial Biotransformation” value in [14], in [16], in series [17] and in [18] was “Compound NOT metabolized” each time.

As for `COC(=O)[C@H]1[C@H]2C[C@@H]3c4[nH]c5cc(OC)ccc5c4CCN3C[C@H]2C[C@@H](OC(=O)c2cc(OC)c(OC)c(OC)c2)[C@@H]1OC` [RESERPINE], the “Bacterial Biotransformation” value in series [1] is “Compound NOT metabolized”; in series [2], “Compound NOT metabolized”; in series [4], “Compound NOT metabolized”; in series [5], “Compound metabolized”; in series [6], “Compound metabolized”; in series [7], “Compound metabolized”. For the same molecule, the “Bacterial Biotransformation” value in series [8] was “Compound NOT metabolized”; in series [9] it was “Compound metabolized”; in series [10], “Compound NOT metabolized”; in [20] it was “Compound NOT metabolized”; in [11], “Compound metabolized”; in [12] it was “Compound metabolized”. For the same molecule, the “Bacterial Biotransformation” value in series [13], in [14], in series [15], in series [17], in [18] and in series [19] was “Compound NOT metabolized” throughout.
